Source: patent publication US7208154B2, “Methods and compositions for the treatment of MHC-associated conditions” (Regents of the University of Michigan, priority 2002, dated 2007)
No end group written: not given here.

Tests used:
calreticulin [1] = assay: Calreticulin cell surface expression in M1 cells (Western-blot, flow cytometry); format: cell-based, human; details: 0.2 μM oligonucleotide, 24 to 48 hr, Lipofectin
Protocol: (§1) M1 cells were cultured in 6-well plate to 60–70% confluency. M1 cells were treated by 0.2 μM antisense oligonucleotide for 24 to 48 hr, using Lipofectin as a carrier. Calreticulin expression levels were determined by Western-blot and flow cytometry, using anti-calreticulin antibodies. Polyclonal rabbit anti-human calreticulin antibodies were obtained from ABR, Golden, CO.

calreticulin [2] = molecular target: T1, calreticulin (Homo sapiens, UniProt P27797); assay: Blocking of shared epitope peptide-triggered signaling (cAMP-inhibitory effect, genoprotection) in M1 cells; format: cell-based; set-up: endogenous in cells; host or cells: M1 human fibroblastoid cells; details: M1 cells pre-incubated or transfected
T1 sequence (P27797 18-417): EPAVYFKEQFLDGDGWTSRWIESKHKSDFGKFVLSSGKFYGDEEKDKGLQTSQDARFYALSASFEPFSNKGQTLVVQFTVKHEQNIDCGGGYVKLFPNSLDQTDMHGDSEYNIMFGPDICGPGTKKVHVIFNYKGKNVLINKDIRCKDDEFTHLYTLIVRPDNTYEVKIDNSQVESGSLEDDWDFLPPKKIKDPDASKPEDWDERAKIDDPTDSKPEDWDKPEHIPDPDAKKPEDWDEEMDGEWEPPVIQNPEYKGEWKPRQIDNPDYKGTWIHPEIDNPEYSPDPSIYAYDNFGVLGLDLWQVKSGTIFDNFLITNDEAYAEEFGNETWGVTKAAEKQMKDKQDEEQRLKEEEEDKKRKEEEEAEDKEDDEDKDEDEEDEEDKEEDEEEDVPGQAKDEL
Protocol: Finally, in order to determine whether these neuroprotective peptides transduce their signaling through calreticulin, two complementing protocols were executed: i) Inhibition of peptide-calreticulin interaction using anti-calreticulin antibodies, or ii) blocking calreticulin expression with antisense oligonucleotides (as shown in FIG. 13C and FIG. 13D).
as §1

[3] = system: human fibroblastoid line M1 cells
Description: To further determine the signaling pathways involved in DNA repair induction, the inventors used the Trevigen CometAssay™ kit (Cat. No. 4250-50-K). The CometAssay is a single-cell gel electrophoresis method that can measure a variety of types of DNA damage, and repair of damage, in individual cells. The assay is based on the alkaline lysis of labile DNA at sites of damage. The unwound, relaxed DNA is able to migrate out of the cell during electrophoresis and can be visualized by SYBR Green staining.
To quantify DNA damage, cells were collected and three parallel samples were processed (a negative control, a DNA damage control (H2O2) and a sample subjected to H2O2 following exposure to various modulators of the cAMP signaling pathway). Cells are then washed in PBS. The washed cells are combined with molten low-melting agarose (Trevigen Cat. No. 4250-50-02) and transferred to a CometSlide™ (Trevigen Cat. No. 4250-100-03). The slides are immersed in lysis buffer for 30 min, on ice, in the dark. The slides are then treated with alkali buffer for 20 to 60 min at room temperature in the dark. The slides are then electrophoresed in buffer for 10 min at 20 volts, then fixed in methanol and ethanol. The slides are then stained with SYBR green (Trevigen Cat. No. 4250-50-05) solution and fluorescently imaged with a Diagnostic Instruments digitized camera, mounted on a Nikon Eclipse E400 microscope. Scion Image software is used to quantitate the comet tail intensity. Each data point is derived from tail fluorescent intensity determination in 50–100 individual cells. Data is presented as % DNA repair (the percent decrement in tail fluorescence intensity in agonist or antagonist-treated cells, relative to the intensity recorded in cells treated with H2O2 only)±SEM. (R.U.s)
To directly examine that possibility, cells were incubated overnight with synthetic peptides corresponding to the region contained within amino acids 65–79 and their ability to mount DNA repair activity in response to cAMP-elevating agents was determined. M1 cells were preincubated overnight with 50 μg/ml of synthetic peptides corresponding to the region surrounding the third allelic hypervariable region (aa 65–79) of each of the following DRβ chains: *0401 (65–79*0401) [SEQ ID NO: 5], *0402 (65–79*0402) [SEQ ID NO: 7], *0403 (65–79*0403) [SEQ ID NO: 9] or *0404(65–79*0404) [SEQ ID NO: 10]. At the end of the preincubation, cells were collected, washed and 2CA-induced DNA repair was determined as above. Table 3 (above) lists the different third allelic hypervariable region peptides used in the entire study disclosed here.
A modified method as described previously by Auger et al. [Nature Med 2:306–310 1996] was used. Briefly, cyanogen bromide activated Speharose 4B (1.5 ml) was washed with 1 mM HCl and incubated with peptides in 0.1 M NaHCO3 and 0.5 M NaCl (pH 8) buffer overnight at 4° C. For each peptide, 5 mg was used per milliliter of Sepharose. Free Sepharose groups were blocked with 0.2 M glycine (pH 8) for 2 hours at room temperature. Columns were washed at 4° C. with the following buffers: 0.1 M NaHCO3, 0.5 M NaCl (pH 8) buffer, then 0.5 M CH3COONa (pH 4) buffer and finally PBS at pH 7.5. M1 cells were plated at a density of 0.5×10^6 cells per well (6 well plate) in 10% FBS DMEM medium until 70–80% confluence. Prior to incubation with peptides, cultures were changed to serum-free DMEM medium, then evenly overlaid with 50 μg bead conjugated peptides, and incubated for the indicated period. Soluble peptides were added overnight to M1 cells at a concentration of 50 μg/ml.

M1 cells = assay: cGMP level (enzyme immunoassay) in M1 cells; format: cell-based, human; details: M1 cells exposed to 50 μg/ml soluble peptide
Protocol: cGMP was determined using an Amersham Pharmacia Biotech cGMP enzymeimmunoassay (EIA) system (Code RPN 226). The reagents (lysis reagents, standards, antibody, cGMP conjugate and wash buffer) are all prepared according to the manufacturer's instructions. Briefly, samples are acetylated with acetylation reagent (acetic anhydride in triethylamine) and then incubated with the antibody reagent and lysis buffer according to the manufacturer's instructions. The cGMP conjugate is then added and the microtiter plate is incubated according to the manufacturer's instructions. The wells are aspirated and washed, enzyme substrate is added and incubated, and the plate can be read at 630 nm or 450 nm (depending on the length of incubation and how the reaction was terminated). Controls are carried out as recommended by the manufacturer, and the results are calculated according to the manufacturer.
D.) cGMP levels in M1 cells were determined as described above using an enzyme immunoassay kit (Pharmacia) at different time points following exposure to 50 μg/ml of soluble 65–78*0401 [SEQ ID NO: 6] or 65–78*0402 [SEQ ID NO: 8] peptides.

[4] = system: hybrid neuroblastoma-glioma NG108–15 cell line; assay: Neuroprotection in acutely stressed NG108–15 cells; format: cell-based
Protocol: In order to assess whether shared epitope-containing peptides exert a neuroprotective effect, preliminary experiments were carried out with the hybrid neuroblastoma-glioma NG108–15 cell line. Cells (10^5/ml) were first cultured overnight at near-confluence in 24-well plates in DMEM medium supplemented with 1% fetal calf serum (FCS). Under these conditions, NG108–15 cells show a flat, multipolar morphology and neurite formation. After 20 hours, cells were stressed acutely in serum-free medium (by aspiration of the medium and replacement with serum-free DMEM) with 50 μg/ml of peptides and evaluated morphologically at different time points thereafter. […] Morphological differences between cultures treated with different peptides could be observed as early as 5–6 hrs after treatment. The photographs shown were taken at the 24 hr time point. In another experiment (FIG. 12C), NG108–15 cells were cultured at low cell density (2×10^4/ml) in 1% FCS-containing DMEM medium overnight. The next day cells were subjected to acute stress in serum-free and low glucose (RPMI1640) medium (after aspiration of the 1% FCS DMEM) in the presence of 50 μg/ml of either 65–78*0401 [SEQ ID NO: 6] or 65–78*0402 [SEQ ID NO: 8] peptides. After 72 hours, cells were fixed with 1% formaldehyde and inspected microscopically. Mean±SEM was determined by averaging cell counts in eight randomly-selected microscopic fields in 200× magnification. Neurite-positive cells were defined as cells with one or more projections extending at least twice as long as the cell diameter. […] (FIG. 12C). The calculated number of neurite-positive cells was over 6-fold higher in shared epitope-containing peptide-cultured cells. When cultured in the presence of lysophosphatidic acid or high concentrations of serum, neuronal cells undergo neurite retraction (130). […] Thus, it is concluded that shared epitope-containing peptides may exert neuroprotective effects.

[5] = system: Total cellular protein extracts; assay: Peptide affinity chromatography of total cellular protein extracts; format: binding; details: total cellular protein extracts loaded
Description: Total cellular protein extracts were loaded onto columns of Sepharose beads, conjugated with either shared epitope-containing peptide 65–78*0404 [SEQ ID NO: 28] or the control peptide 65–78*0402 [SEQ ID NO: 8]. Bound proteins were eluted at low pH. […] 11 sequenced bands matched intracellular proteins, and only two sequences matched previously identified cell surface proteins: heat shock protein 60 (HSP60) and calreticulin. Both calreticulin and HSP60 are chaperones, with strong tendency to form hetero-complexes.

calreticulin [6] = molecular target: T1, calreticulin; assay: Peptide affinity column binding of purified recombinant calreticulin; details: immunoblot of eluate

5′-GGATAGCAGCATGGCGGGCCG-3′ (listed as DNA, chemistry not given here) [calreticulin antisense oligonucleotides, calreticulin antisense oligonucleotide synthesized by Operon]
Inhibition of calreticulin cell surface expression (calreticulin [1]): inhibited cell surface expression
Block of shared epitope peptide-triggered signaling / inhibitory effect on genoprotection (calreticulin [2]): blocked peptide-triggered signaling

KDLLEQKRAAVDTY-NH2 [65–78*0401]
IC50 [3]: ~250 nM
cGMP levels (M1 cells): triggered increased cGMP levels
Inhibition of neurite retraction effect of 10% FCS ([4]; data not shown): inhibited the neurite retraction effect
Survival rate versus control peptide 65–78*0402 ([4]; low density, serum-free low glucose medium, 50 μg/ml, 72 hours, p<0.0005): significantly higher survival rate
Percentage of neurite-positive cells versus control peptide 65–78*0402 ([4]; low density, serum-free low glucose medium, 50 μg/ml, 72 hours, p<0.001): higher percentage of neurite-positive cells
Cell morphology after acute serum-free stress ([4]; near-confluent NG108–15, 50 μg/ml peptide, 24 hr): greater preservation of the multipolar flat cell morphology with neurites
Calculated number of neurite-positive cells, fold higher than control peptide ([4]; serum-free low glucose medium, 50 μg/ml, 72 hours): over 6 fold

KDLLEQRRAAVDTY [65–78*0404, synthetic peptide corresponding to amino acids 65–78 of the β chain encoded by the HLA-DRB*0404 allele]
Protein binding: distinct bands in low pH eluates of peptide-conjugated Sepharose column [5]: ~20
Binding of recombinant human calreticulin to peptide affinity column (calreticulin [6]): specifically bound
